Assay results as given in PubChem BioAssay AID504501 (Sanford-Burnham Center for Chemical Genomics, 2011).

Molecular target: Sentrin-specific protease 8 (Homo sapiens) (UniProt Q96LD8)
Test: SENP8 protease inhibitors, SAR follow-up, biochemical, luminescence (AID 504501)
Conditions: recombinant SENP8 enzyme, luminescent protease assay

Sentrin-specific protease 8 (Homo sapiens), sequence (Q96LD8 whole entry, looked up): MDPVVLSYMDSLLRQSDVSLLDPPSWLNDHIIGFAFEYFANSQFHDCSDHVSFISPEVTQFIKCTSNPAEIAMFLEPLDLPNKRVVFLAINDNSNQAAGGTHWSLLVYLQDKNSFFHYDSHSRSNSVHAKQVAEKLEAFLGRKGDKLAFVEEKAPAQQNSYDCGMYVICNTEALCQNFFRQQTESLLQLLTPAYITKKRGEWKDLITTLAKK

`Cc1cccc(C(=O)Nc2scc(-c3ccc(Br)cc3)c2C(=O)O)c1` gave an IC50 of 3.75 µM.

With `Fc1ccc(COc2ccc(C(=S)N3CCCC3)cc2)cc1` the IC50 was 2.5 µM.
